Measurements taken from patent publication US9370516B2 (Pfizer Inc., priority 2012, dated 2016).
“And” between values parts separate entries of the source, which are not always exact repeats. Equal values may be shown once.

How the values were obtained:
humans = test: Clinical studies B3301001, B3301002, B3301007; type: in vivo, human
Procedure: Patients were administered Example 1 as an extemporaneously prepared suspension in B3301001, B3301002, and the IR in B3301007 and as an extemporaneously prepared osmotic capsule (EPOC) in B3301007. […] Dose related increase in heart rate (up to ˜10 beats per minute) as well as attenuation of both ghrelin-induced growth hormone secretion and postprandial glucose were seen after acute dosing.

dog GHSR1a = target: T1, dog GHSR1a (Canis lupus familiaris, UniProt A5HKU8); test: Radioligand binding filtration format assay, dog GHSR1a; details: pre-incubation 90 minutes; read-out: Dog GHS-1aR Filter Ki (converted)
T1 construct: dog (NM_001099945.1)
T1 sequence (A5HKU8 1-349): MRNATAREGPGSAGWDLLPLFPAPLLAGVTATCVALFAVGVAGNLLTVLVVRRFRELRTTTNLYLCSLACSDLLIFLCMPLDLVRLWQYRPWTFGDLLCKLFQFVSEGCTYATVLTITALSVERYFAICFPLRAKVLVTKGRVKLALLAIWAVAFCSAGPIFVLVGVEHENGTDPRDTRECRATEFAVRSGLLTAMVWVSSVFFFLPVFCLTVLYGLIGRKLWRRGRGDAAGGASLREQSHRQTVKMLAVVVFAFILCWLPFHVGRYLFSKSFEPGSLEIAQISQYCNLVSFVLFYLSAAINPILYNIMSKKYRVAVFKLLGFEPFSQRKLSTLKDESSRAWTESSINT
Procedure: (§1) Ghrelin binding assays were performed in a final volume of 100 μl containing […] patient GHSR1a (HEK293 Tetracycline-Inducible cell line expressing the patient growth secretagogue receptor 1a; prepared as membranes) and 50 pM [^125I] ghrelin (Perkin Elmer Life Sciences, NEX-388), plus varying concentrations of test compound or vehicle.
(§2) Assays were initiated by addition of 23 μl assay buffer (50 mM HEPES, 10 mM MgCl2, 0.2% BSA, EDTA-free protease inhibitor tablets—1 tablet/50 ml buffer, pH 7.4), 25 μl 4 mg/ml hGHSR1a membrane and 50 μl of 100 pM [^125I] ghrelin, both in assay buffer.
(§3) Radioligand binding filtration format assays for dog (NM_001099945.1), monkey (XM_001084886.1), mouse (NM_177330), and rat (NM_032075) GHSR1a (all expressed in unique HEK293 Tetracycline-Inducible cell lines) were performed in an identical manner as described for patient GHSR1a except that the final amount of membrane to be used is as follows: 2 μg dog GHSR, 250 ng monkey GHSR, 200 ng mouse GHSR, or 125 ng rat GHSR.

monkey GHSR1a = target: T2, monkey GHSR1a (Macaca mulatta, UniProt F6Z4B1); test: Radioligand binding filtration format assay, monkey GHSR1a; details: pre-incubation 90 minutes; read-out: Primate GHS-1aR Filter Ki (converted)
T2 construct: monkey (XM_001084886.1)
T2 sequence (F6Z4B1 1-366): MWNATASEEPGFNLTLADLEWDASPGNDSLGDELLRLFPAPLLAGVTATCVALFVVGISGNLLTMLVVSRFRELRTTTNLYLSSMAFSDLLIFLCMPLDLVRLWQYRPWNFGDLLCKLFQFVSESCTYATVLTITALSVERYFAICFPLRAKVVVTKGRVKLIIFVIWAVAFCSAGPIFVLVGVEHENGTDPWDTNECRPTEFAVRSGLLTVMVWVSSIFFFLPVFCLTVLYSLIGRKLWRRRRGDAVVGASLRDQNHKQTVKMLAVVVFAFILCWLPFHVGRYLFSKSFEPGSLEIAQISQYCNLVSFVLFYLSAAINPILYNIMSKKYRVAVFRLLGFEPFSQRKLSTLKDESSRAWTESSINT
Procedure: as §1, §2, §3

[1] = target: broad panel of receptors, transporters, ion channels, and enzymes; test: Selectivity against a broad panel
patient GHSR1a [2] = target: T3, patient GHSR1a (Homo sapiens, UniProt Q92847); details: pre-incubation 8 hours
T3 sequence (Q92847 whole entry): as the sequence (F6Z4B1 1-366) above, with A6P, E20D, R36Q, S59A, I163V counted along it
Excerpt: (§4) The SPA format was utilized for high throughput screening of test compounds and filter binding served for more comprehensive binding characterization. In both formats test compound affinity is expressed as Ki value, defined as the concentration of compound required to decrease [^125I] ghrelin binding by 50% for a specific membrane batch at a given concentration of radioligand.

rat GHSR1a = rat GHSR1a (Rattus norvegicus, UniProt O08725); test: biochemical; details: Rat GHS-1aR Filter Ki, pre-incubation 90 minutes
Chain of rat GHSR1a (O08725 whole entry): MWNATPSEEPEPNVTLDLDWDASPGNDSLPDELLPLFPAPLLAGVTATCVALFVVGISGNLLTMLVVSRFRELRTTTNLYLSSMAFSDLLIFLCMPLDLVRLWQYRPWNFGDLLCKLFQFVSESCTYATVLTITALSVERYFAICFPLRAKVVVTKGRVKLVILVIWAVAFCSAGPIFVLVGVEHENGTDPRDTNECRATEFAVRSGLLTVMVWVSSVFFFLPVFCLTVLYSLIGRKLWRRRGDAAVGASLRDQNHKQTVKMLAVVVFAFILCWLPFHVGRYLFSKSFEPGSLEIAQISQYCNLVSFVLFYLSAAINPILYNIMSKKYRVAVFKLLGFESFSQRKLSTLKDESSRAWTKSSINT
Procedure: as §1
as §2, with “Briefly, assays were prepared at room temperature in 96-well plates (Costar, 3357) containing 2 μl of test compound in DMSO (or DMSO as vehicle). Assays” for “Assays”
(§5) The mixture was incubated for 90 minutes at room temperature followed by transfer to a 0.3% PEI-treated, 96-well glass fiber filtration plate (Perkin Elmer, 6005174). The mixture was suctioned dry with vacuum and immediately washed 3 times with 200 μl ice cold 50 mM Tris pH 7.5. Plates were allowed to dry overnight at room temperature and 30 μl Supermix scintillant (Perkin Elmer, 1200-439) is added to each well. The amount of receptor-ligand complex was determined by liquid scintillation counting using a 1450 Microbeta Trilux (Wallac). […]

mouse GHSR1a = mouse GHSR1a (Mus musculus, UniProt Q99P50); test: biochemical; details: Mouse GHS-1aR Filter Ki, pre-incubation 90 minutes
Chain of mouse GHSR1a (Q99P50 whole entry): as the sequence (O08725 whole entry) above, with P30S, A249S counted along it
Procedure: as §1
as §2, with “Briefly, assays were prepared at room temperature in 96-well plates (Costar, 3357) containing 2 μl of test compound in DMSO (or DMSO as vehicle). Assays” for “Assays”
as §5

patient GHSR1a [3] = target: T3, patient GHSR1a
Excerpt: The assay monitors the ligand-dependent exchange of GDP for GTP. GPCR activation results in an increase in fluorescence as receptor-bound GDP is replaced by Europium-labeled GTP.

male rhesus monkeys = test: Primate study of sleep duration and food intake after evening dosing; type: in vivo, Macaca mulatta
Excerpt: In a primate study, the effect of Example 1 on sleep duration and food intake three hours post evening dosing Example 1 was studied dosing either once a day (QD) or twice a day (BID). Eight healthy adult (5.8 to 9.7 years of age) male rhesus monkeys, (Macaca mulatta, of Indian origin) were used. Animals were studied in parallel. According to a cross-over design, four of the animals received Example 1 (or Vehicle as a control) QD during the first phase of the study and BID during the second phase of the study. A reverse treatment schedule was used for the remaining four animals. When Example 1 was administered QD, the single dose was administered in the evening. Each treatment period lasted 28-30 consecutive days. Vehicle treatment lasted 10-14 days, immediately preceding the phase where Example 1 was administered. Animals were also kept in their sleep/circadian chambers to become familiar with them. Treatment was administered as a liquid solution, dispensed automatically using a timer-controlled pump. Throughout treatment periods, animals were maintained in light-controlled and sound attenuated sleep/circadian chambers, under constant conditions of dim light, in order to determine the intrinsic rhythms of sleep/activity and self-administered food intake. Sleep/activity cycle and sleep duration was documented using continuous on-line actigraphic image analysis technique, as described in Masuda et al., J Biol Rhythms. 2010 October; 25(5):361-71, Intrinsic activity rhythms in Macaca mulatta: their entrainment to light and melatonin. A software algorithm for actigraphic data analysis of sleep versus wakefulness in rhesus monkeys is explained in Zhdanova et al., J Biol Rhythms. 2011 April; 26(2):149-59. Aging of intrinsic circadian rhythms and sleep in a diurnal nonhuman primate, Macaca mulatta. Sleep onset and duration estimates were based on the comparisons between polysomnographic and actigraphic sleep in this species. Each circadian chamber was equipped with an individual touch-screen monitor, connected to an automatic pellet dispenser (ENV-203-1000, Med Associates Inc., St. Albans, Vt.). This allowed for ad libitum around the clock self-administration of 1 g food pellets (Nutritionally complete dustless precision pellets, Bio-Serv, Frenchtown, N.J.) via pressing a moving on-screen target. The time each pellet dispensed was documented. Data analysis was conducted using linear mixed model (SPSS), with the level of significance at p<0.05. Data were presented as group means (standard error of the means (SEM)) for each treatment condition: QD or BID administration of vehicle or Example 1.

Male Wistar Han rats = test: Locomotor activity after single oral dose; type: in vivo, rat
Procedure: (§6) Male Wistar Han rats were administered a single dose (1, 10, 50, or 150 mg/kg) of (R)-2-(2-methylimidazo[2,1-b]thiazol-6-yl)-1-(2-(5-(6-methylpyrimidin-4-yl)-2,3-dihydro-1H-inden-1-yl)-2,7-diazaspiro[3.5]nonan-7-yl)ethanone (Example 1) via oral gavage to assess the effects of Example 1 on locomotor activity over a 21 hour period (FIG. 1). Animals were habituated to the locomotor apparatus one hour prior to dosing. The lights were turned off at 4 pm and turned on at 4 am. Animals were dosed at 4 pm. Activity was monitored post-dose for 20 hours. Plasma, brains and CSF were taken from a satellite group of animals at Tmax (30 minutes post dosing).

patient GHSR1a [4] = target: T3, patient GHSR1a; test: biochemical; details: for Ki: Human GHS-1aR Filter Ki
Procedure: as §4
Patient Ghrelin Filter Binding Assay
as §1
as §2, with “Briefly, assays were prepared at room temperature in 96-well plates (Costar, 3357) containing 2 μl of test compound in DMSO (or DMSO as vehicle). Assays” for “Assays”
The mixture was incubated for 90 minutes at room temperature followed by transfer to a 0.3% PEI-treated, 96-well glass fiber filtration plate (Perkin Elmer, 6005174). The mixture was suctioned dry with vacuum and immediately washed 3 times with 200 μl ice cold 50 mM Tris pH 7.5. Plates were allowed to dry overnight at room temperature and 30 μl Supermix scintillant (Perkin Elmer, 1200-439) is added to each well. The amount of receptor-ligand complex was determined by liquid scintillation counting using a 1450 Microbeta Trilux (Wallac).

[5] = Plasma and brain levels 30 minutes post dosing; type: in vivo, rat
Procedure: as §6

[6] = QD and BID groups, N=8 per group, p<0.01
[7] = individual animal, evening QD, throughout the treatment period
[8] = 10 mg/kg oral gavage, 35-65 minutes post dosing
[9] = 50 mg/kg oral gavage, 35-65 minutes post dosing

Ki (dog GHSR1a): 3.56 nM and 3.57 nM | Ki (monkey GHSR1a): 1.83 nM | IC50 [1]: > 1000 nM | Human GHS-1aR SPA Ki (patient GHSR1a [2]): 2.24 ng/mL | Ki (rat GHSR1a): 3.19 nM and 3.2 nM | Ki (mouse GHSR1a): 7.7 nM | functionality of the test compound (patient GHSR1a [3]): inverse agonist | hyperactivity (Male Wistar Han rats; any dose (1-150 mg/kg)): did not induce hyperactivity | Ki (patient GHSR1a [4]; pre-incubation 90 minutes): 2.49 nM and 2.5 nM | Ki (patient GHSR1a [4]; pre-incubation 24 hours): 1.42 nM | Kd (patient GHSR1a [4]; Human GHS-1aR Filter Motulsky Kd, Equilibrium 4.07 hours): 3.04 nM | Kd (patient GHSR1a [4]; human Kd via Patient Ghrelin Filter Binding Assay): 3 nM | Brain (nM free) ([5]; 1 mg/kg oral): 1.6 nM free | Plasma (nM free) ([5]; 1 mg/kg oral): 18 nM free | Brain (nM free) ([5]; 10 mg/kg oral): 16 nM free | Plasma (nM free) ([5]; 10 mg/kg oral): 184 nM free | Brain (nM free) ([5]; 50 mg/kg oral): 80 nM free | Plasma (nM free) ([5]; 50 mg/kg oral): 856 nM free | Brain (nM free) ([5]; 150 mg/kg oral): 148 nM free | Plasma (nM free) ([5]; 150 mg/kg oral): 1704 nM free
SMILES: Cc1cc(-c2ccc3c(c2)CC[C@H]3N2CC3(CCN(C(=O)Cc4cn5cc(C)sc5n4)CC3)C2)ncn1 [Example 1, (R)-2-(2-methylimidazo[2,1-b]thiazol-6-yl)-1-(2-(5-(6-methylpyrimidin-4-yl)-2,3-dihydro-1H-inden-1-yl)-2,7-diazaspiro[3.5]nonan-7-yl)ethanone]
dose related increase in heart rate (humans; after acute dosing): ≤ 10 beats per minute | ghrelin-induced growth hormone secretion (humans; after acute dosing): attenuation | postprandial glucose (humans; after acute dosing): attenuation | safety and tolerability in humans (humans; up to 100 mg BID for 14 days): safe and generally well tolerated | change in food intake within 3 hours of evening administration vs vehicle (male rhesus monkeys; [6]): significant decrease in food intake | change in sleep duration within 3 hours of evening treatment vs vehicle (male rhesus monkeys; [6]): significant increase in sleep duration | food intake soon after administration (male rhesus monkeys; [7]): significantly reduced food intake | sleep latency (male rhesus monkeys; [7]): significantly reduced sleep latency | effect on locomotor activity compared to vehicle (Male Wistar Han rats; 1 mg/kg oral gavage, 35-65 minutes post dosing): no biologically or statistically significant effect | decrease in rearing (Male Wistar Han rats; [8]): 56% | decrease in total locomotor activity (Male Wistar Han rats; [8]): 60% | decrease in rearing (Male Wistar Han rats; [9]): 43% | decrease in total locomotor activity (Male Wistar Han rats; [9]): 48% | total activity compared to vehicle control (Male Wistar Han rats; 150 mg/kg oral gavage, 35-65 minutes post dosing): reduction in total activity which was statistically significant | total activity (Male Wistar Han rats; 20 hours post dosing): no statistically or biologically significant reductions in total activity
